Experimental data as given in patent publication US20210403498A1, “PHYTOCHEMICAL-FRUCTOOLIGOSACCHARIDE CONJUGATE, METHOD FOR PRODUCING SAME, AND USE THEREOF” (EVERGREEN BIO CO., LTD., priority 2018, published 2021).
≈ marks a conversion by molar mass, not a printed value. Where two headings read alike, the source gives them in different places.

Columns and labels:
[1] = test system: CCD 18Co (Normal Human colon fibroblast primary cell line); assay: CCK-8 cell proliferation, normal colon cells; type: cell-based; details: 72 hr
Experimental: (§1) Specifically, the cell lines cultured in each well of a 96-well plate were dispensed at a density of 18,000 cells per well and cultured overnight, and then the cells were treated with drugs dissolved in various concentrations in the culture medium, and were incubated for 72 hr under a temperature of 37° C. and 5% CO2 condition in a humidified incubator. After completion of the culture, the medium was removed and replaced with 100 μl of PBS, and […] Cell Counting Kit-8 (CCK-8; Dojindo, Japan) solution was added thereto, and the cells were incubated for 3 hr for reaction. Thereafter, the degree of color development of the reaction solution was measured based on absorbance at 450 nm, and the number of cell proliferation was calculated according to the instructions of the producing company.
(§2) HT-29 cells were cultured in McCoy's 5A medium, LoVo cells were cultured in Ham's F-12K (Kaigh's) medium, CCD 18Co cells were cultured in DMEM. Before use, 10% Fetal bovine serum and 100 U/ml penicillin, streptomycin were added to all media.

[2] = test system: HT-29 (Colorectal adenocarcinoma); assay: CCK-8 cell proliferation, colorectal cancer cells; type: cell-based, human; details: for IC50: HT-29, 72 hr, CCK-8; for SI (Selectivity Index): IC50 for Normal cell (CCD 18Co)/IC50 for HT-29
Experimental: as §1, §2

[3] = test system: Lovo (Colorectal adenocarcinoma capable of metastasis); assay: CCK-8 cell proliferation, metastasis colorectal cancer cells; type: cell-based, human; details: for IC50: Lovo, 72 hr, CCK-8; for SI (Selectivity Index): IC50 for Normal cell (CCD 18Co)/IC50 for Lovo
Experimental: as §1, §2

[4] = In vivo pharmacokinetics in rats (FA in plasma, LC MS/MS); details: male, Sprague Dawley; rat plasma, single oral dose 100 mg/kg FA
Experimental: In order to evaluate the in vivo pharmacokinetics of FA-FOS II, the release profile of ferulic acid (FA) released from FA-FOS II in the colon of rats was investigated. Specifically, male Sprague Dawley rats weighing 180 to 250 g were randomly assigned to three groups as follows.
(ii) Ferulic acid (FA) administered group: a drug is prepared by dissolving ferulic acid (FA) in water and is administered orally thereto at a predetermined dose
(iii) FA-FOS II administered group: a drug is prepared by dissolving FA-FOS II in water and is administered orally thereto at a predetermined dose
Ferulic acid (FA) was orally administered to the rats at a dose of 100 mg/kg body weight, based on the amount of ferulic acid (FA), in the state dissolved in sterile water. Further, FA-FOS II was orally administered thereto at a dose of 3.89 g/kg body weight (equivalent to 100 mg/kg body weight in terms of the amount of ferulic acid) based on the amount of FA-FOS II, in the state dissolved in sterile water. After single dose administration via oral intake, rat blood was continuously sampled over 0, 0.5, 1, 3, 6, 8, 12, 24 hr. The sampled samples were subjected to LC MS/MS analysis in a multiple reaction monitoring (MRM) manner of a molecular weight 193.0/133.9 Da (intact mass/fragment mass of FA) to quantify the FA released from plasma.

IC50 ([2]; Homo sapiens, read-out: IC50) [µg/mL] | IC50 ([3]; Homo sapiens, read-out: IC50) [µg/mL] | Tmax [4] [min] | half-life [4] [min] | SMILES | IC50 ([1]; Homo sapiens, read-out: IC50) [µg/mL] | SI (Selectivity Index) [2] | SI (Selectivity Index) [3] | IC50 [1] [µg/mL] | IC50 [2] [µg/mL] | IC50 [3] [µg/mL]
0.008 (≈ 0.0615 µM) | 0.074 (≈ 0.569 µM) |  |  | O=c1[nH]cc(F)c(=O)[nH]1 [5-Fluorouracil, 5-fluorouracil] | 0.014 (≈ 0.108 µM) | (SI: 1.685) | (SI: 0.186) |  |  | 
 |  |  |  | O=C1[O][Pt]2([NH][C@@H]3CCCC[C@H]3[NH]2)[O]C1=O [Oxaliplatin, oxaliplatin] |  | (SI: 6.631) | (SI: 1.473) | 0.100 | 0.015 | 0.068
0.2 (≈ 1.03 µM) | 0.244 (≈ 1.26 µM) | ~5 | ~30 | COc1cc(/C=C/C(=O)O)ccc1O [FA, ferulic acid] | 0.583 (≈ 3 µM) | (SI: >2.918) | (SI: >2.389) |  |  | 
